Molecular target: Cyclin-dependent kinase 2 (CDK2) (Homo sapiens, UniProt P24941)

Nc1ncnc2c1ncn2[C@@H]1O[C@H](COP(=O)(O)OP(=O)(O)OP(=O)(O)O)[C@@H](O)[C@H]1O [ATP]
Km: ~100 µM
